Calls of active or inactive are those of the source. No cut-off for these calls is given here.
How the values were obtained:
[1] = molecular target: T1, Nuclear receptor ROR-alpha (Homo sapiens) (UniProt P35398); assay: Partial agonist activity at GST-fussed RORalpha (unknown origin) assessed as recruitment of TIF2 mutant-BAP protein after overnight incubation by pull down assay
T1 sequence (whole entry): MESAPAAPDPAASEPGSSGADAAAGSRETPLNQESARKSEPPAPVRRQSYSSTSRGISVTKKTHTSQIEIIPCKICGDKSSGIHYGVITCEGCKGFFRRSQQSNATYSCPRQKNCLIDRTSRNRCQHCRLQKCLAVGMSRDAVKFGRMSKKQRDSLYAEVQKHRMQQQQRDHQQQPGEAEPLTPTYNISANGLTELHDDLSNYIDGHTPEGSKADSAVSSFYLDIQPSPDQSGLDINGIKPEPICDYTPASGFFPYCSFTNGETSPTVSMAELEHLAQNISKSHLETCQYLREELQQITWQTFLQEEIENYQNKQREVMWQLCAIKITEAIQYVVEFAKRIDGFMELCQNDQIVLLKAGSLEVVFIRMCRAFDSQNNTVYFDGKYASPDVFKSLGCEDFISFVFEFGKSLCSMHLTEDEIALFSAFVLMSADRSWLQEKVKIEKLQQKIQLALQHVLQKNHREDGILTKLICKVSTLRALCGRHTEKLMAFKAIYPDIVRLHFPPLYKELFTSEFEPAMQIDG

[2] = molecular target: T1, Nuclear receptor ROR-alpha (Homo sapiens); assay: Partial agonist activity at GST-fussed RORalpha (unknown origin) assessed as recruitment of TIF2-BAP protein after overnight incubation by pull down assay relative to 7DC
[3] = molecular target: T2, Nuclear receptor ROR-alpha (Homo sapiens, UniProt P35398); assay: Partial agonist activity at GST-fussed RORalpha (unknown origin) assessed as recruitment of TIF2-BAP protein after overnight incubation by pull down assay
T2 sequence (P35398 whole entry): T1 sequence (whole entry)

[4] = molecular target: T1, Nuclear receptor ROR-alpha (Homo sapiens); assay: Partial agonist activity at GST-fussed RORalpha (unknown origin) assessed as recruitment of TIF2-BAP protein at 30 uM after overnight incubation by pull down assay relative to 7DC

| SMILES | Activity [1] | Emax [2] [%] | EC50 [3] [µM] | Activity [4] |
| --- | --- | --- | --- | --- |
| CCOC(=O)C1=C(C)NC(=O)NC1c1ccc(OCc2ccccc2)cc1 (racemic) | inactive | 25 | 4.3 | – |
| COc1ccc(COC(=O)C2=C(C)NC(=O)NC2c2ccc(OCc3ccccc3)c(OC)c2)cc1 (racemic) | inactive | 19 | 10.9 | – |
| COc1cccc(COC(=O)C2=C(C)NC(=O)NC2c2ccc(OCc3ccccc3)c(OC)c2)c1 (racemic) | inactive | 55 | 26.2 | – |
| COc1ccc(COC(=O)C2=C(C)NC(=O)NC2c2ccc(OCc3ccccc3)c(OC)c2)cc1OC (racemic) | inactive | 43 | 26.3 | – |
| COc1cc(C2NC(=O)NC(C)=C2C(=O)OCc2ccc3c(c2)OCO3)ccc1OCc1ccccc1 (racemic) | inactive | 70 | 12.5 | – |
| COc1cc(C2NC(=O)NC(C)=C2C(=O)OCCSC)ccc1OCc1ccccc1 (racemic) | inactive | 27 | > 30 | – |
| COC(=O)C1=C(C)NC(=O)NC1c1ccc(OCc2ccccc2)c(OC)c1 (racemic) | inactive | 33 | 13.1 | – |
| C=CCOC(=O)C1=C(C)NC(=O)NC1c1ccc(OCc2ccccc2)c(OC)c1 (racemic) | inactive | 76 | 22.9 | – |
| CCCCOC(=O)C1=C(C)NC(=O)NC1c1ccc(OCc2ccccc2)c(OC)c1 (racemic) | inactive | 58 | 14 | – |
| COc1cc(C2NC(=O)NC(C)=C2C(=O)OCC(F)(F)F)ccc1OCc1ccccc1 (racemic) | inactive | 80 | > 30 | – |
| CC1=C(C(=O)OCC(F)(F)F)C(c2ccc(OCc3ccccc3)cc2)NC(=O)N1 (racemic) | inactive | 12 | > 30 | – |
| CC1=C(C(=O)OCCOc2ccccc2)C(c2ccc(OCc3ccccc3)cc2)NC(=O)N1 (racemic) | – | 39 | 8.1 | – |
| CCOC(=O)C1=C(C)NC(=O)NC1c1cc(OC)c(OCc2ccccc2Cl)cc1Cl (racemic) | – | 55 | 5.5 | – |
| CCOC(=O)C1=C(C)NC(=O)NC1c1ccc(OCc2ccccc2)c(OC)c1 (racemic) | – | 56 | 8.9 | – |
| CCOC(=O)C1=C(C)NC(=O)NC1c1ccc(OCCc2ccccc2)c(OC)c1 (racemic) | inactive | 36 | 20.3 | – |
| COc1cc(C2NC(=O)NC(C)=C2C(C)=O)ccc1OCc1ccccc1Cl (racemic) | inactive | 48 | 28.2 | – |
| CCOC(=O)C1=C(C)N(C)C(=O)NC1c1ccc(OCc2ccccc2)c(OC)c1 (racemic) | inactive | 29 | > 19 | – |
| CCOC(=O)C1=C(C)NC(=O)N(C)C1c1ccc(OCc2ccccc2)c(OC)c1 (racemic) | inactive | 19 | > 30 | – |
| CCOC(=O)C1=C(CC)NC(=O)NC1c1ccc(OCc2ccccc2)c(OC)c1 (racemic) | inactive | > 45 | > 30 | – |
| COc1cc(C2NC(=O)NC(C)=C2C(=O)OCc2ccccc2)ccc1OCc1ccccc1 (racemic) | inactive | 44 | > 30 | – |
| CC1=C(C(=O)Nc2ccccc2)C(c2ccc(OCc3ccccc3)cc2)NC(=O)N1 (racemic) | inactive | – | – | inactive |

| SMILES | Activity [1] | Emax [2] [%] | EC50 [3] [µM] | Activity [4] |
| --- | --- | --- | --- | --- |
| CC1=C(C(=O)OCC(C)C)C(c2ccc(OCc3ccccc3)cc2)NC(=O)N1 (racemic) | inactive | – | – | inactive |
| CCC(C)NC(=O)C1=C(C)NC(=O)NC1c1ccc(OCc2ccccc2)cc1 (racemic) | inactive | – | – | inactive |
| CCCOc1ccc(C2NC(=O)NC(C)=C2C(=O)OCC)cc1OC (racemic) | inactive | – | – | inactive |
| CCOC(=O)C1=C(C)NC(=O)NC1c1cc(OC)c(O)cc1Cl (racemic) | inactive | – | – | inactive |
| CCOC(=O)C1=C(C)NC(=O)NC1c1cc(OC)c(OC)cc1Cl (racemic) | inactive | – | – | inactive |
| CCOC(=O)C1=C(C)NC(=O)NC1c1ccc(OCCCc2ccccc2)c(OC)c1 (racemic) | inactive | – | – | inactive |
| COc1cc(C2NC(=O)NC(C)=C2C(=O)NCc2ccccc2)ccc1OCc1ccccc1 (racemic) | inactive | – | – | inactive |
| COc1cc(C2NC(=O)NC(C)=C2C(=O)O)ccc1OCc1ccccc1 (racemic) | inactive | – | – | inactive |
| COc1cc(C2NC(=O)NC(C)=C2C(=O)OCC2CCCCC2)ccc1OCc1ccccc1 (racemic) | inactive | – | – | inactive |
| COc1cc(C2NC(=O)NC(C)=C2C(=O)OCC2CCCO2)ccc1OCc1ccccc1 (racemic) | inactive | – | – | inactive |
| COc1cc(C2NC(=O)NC(C)=C2C(=O)OCCOC(C)C)ccc1OCc1ccccc1 (racemic) | inactive | – | – | inactive |
| COc1cc(C2NC(=O)NC(C)=C2C(=O)OCCc2ccccc2)ccc1OCc1ccccc1 (racemic) | inactive | – | – | inactive |
| COc1cc(C2NC(=O)NC(C)=C2C(C)=O)ccc1OCc1ccccc1 (racemic) | inactive | – | – | inactive |
| COc1cc(C2NC(=O)NC(C)=C2C(N)=O)ccc1OCc1ccccc1 (racemic) | inactive | – | – | inactive |
| CCOc1cc(C2NC(=O)NC(C)=C2C(C)=O)ccc1OCc1ccccc1Cl (single isomer, unassigned; enantiomer 1) [listing 1 of 2 here] | – | – | 10.9 | – |
| CCOc1cc(C2NC(=O)NC(C)=C2C(C)=O)ccc1OCc1ccccc1Cl (single isomer, unassigned; enantiomer 1) [listing 2 of 2 here] | inactive | 85 | – | – |
| CCOc1cc(C2NC(=O)NC(C)=C2C(C)=O)ccc1OCc1ccccc1Cl (single isomer, unassigned; enantiomer 2) [listing 1 of 2 here] | – | – | > 30 | – |
| CCOc1cc(C2NC(=O)NC(C)=C2C(C)=O)ccc1OCc1ccccc1Cl (single isomer, unassigned; enantiomer 2) [listing 2 of 2 here] | inactive | > 41 | – | – |
| CCOc1cc(C2NC(=O)NC(C)=C2C(C)=O)ccc1OCc1ccccc1Cl (stereo in doubt; 1) [listing 1 of 2 here] | – | – | 12.7 | – |
| CCOc1cc(C2NC(=O)NC(C)=C2C(C)=O)ccc1OCc1ccccc1Cl (stereo in doubt; 1) [listing 2 of 2 here] | inactive | 88 | – | – |

Reference: ChEMBL document CHEMBL2384919, “Identification of New Nonsteroidal RORα Ligands; Related Structure-Activity Relationships and Docking Studies” (ACS Med Chem Lett, 2013)
